{
  "source": "patent US20240148040A1",
  "about": "“METHODS OF REDUCING EXERCISE-INDUCED INJURY OR ENHANCING MUSCLE RECOVERY AFTER EXERCISE” (intrinsic Medicine, Inc., priority 2020, published 2024)",
  "test_system": "CEBPB expression in LPS-stimulated THP-1 cells",
  "experiment": "CEBPB expression in nascent RNAs of LPS-stimulated THP-1 cells (nascent RNA sequencing)",
  "format": "cell-based",
  "details": "10 ng/mL LPS and 250 μM 2′FL, CEBPB enhanced and upregulated",
  "method": "THP-1 Cells were treated with 10 ng/mL LPS or 10 ng/mL LPS and 250 μM 2′F and extracted for nascent RNAs at 30 min and 24 hours. The nascent RNAs were sequenced and analyzed as described in Azofeifa et al. (2018), Genome Res. 28: 334-344; the contents of which are expressly incorporated by reference herein.",
  "data": [
    {"compound": "CC1O[C@@H](OC2[C@H](O[C@H]3C(O)C(O)C(O)O[C@H]3CO)OC(CO)[C@H](O)[C@@H]2O)C(O)[C@@H](O)[C@@H]1O", "note": "(some centres unmarked) [2′FL, 2′-fucosyllactose]", "values": [
      {"measurement": "CEBPB maximum enrichment score (nascent RNAs, 2′FL+LPS treated cells versus LPS alone)", "setting": "30 min", "result": 40},
      {"measurement": "CEBPB maximum enrichment score (nascent RNAs, 2′FL+LPS treated cells versus LPS alone)", "setting": "24 hours", "result": 20}
    ]}
  ]
}
